{"source": "patent US20170291905A1", "about": "“ARGININE […] INHIBITORS AND USES THEREOF” (Epizyme, Inc., priority 2014, published 2017)", "biological_target": "T1, PRMT1 (Homo sapiens, UniProt Q99873)", "T1 construct": "host or cells: RKO cells", "T1 sequence (Q99873 whole entry)": "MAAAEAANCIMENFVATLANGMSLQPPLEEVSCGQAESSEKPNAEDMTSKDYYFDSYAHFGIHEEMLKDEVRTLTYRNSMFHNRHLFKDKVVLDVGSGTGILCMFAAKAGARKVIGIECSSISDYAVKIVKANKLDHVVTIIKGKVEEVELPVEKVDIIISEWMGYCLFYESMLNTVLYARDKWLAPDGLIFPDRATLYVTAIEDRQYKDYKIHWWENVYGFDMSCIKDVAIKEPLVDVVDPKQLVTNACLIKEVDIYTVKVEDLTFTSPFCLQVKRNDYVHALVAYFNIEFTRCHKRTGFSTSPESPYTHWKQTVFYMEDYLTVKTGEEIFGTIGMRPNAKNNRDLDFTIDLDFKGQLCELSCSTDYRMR", "experiment": "RKO methylation assay, In Cell Western (ICW) for mono-methyl arginine and DNA content", "format": "cell-based", "conditions": "RKO cells, 72 hours, mono-methyl arginine signal normalised to DRAQ5, percent activation", "outline": "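RKO cells treated with compound for 72 h at 37 °C, then methanol-fixed and In Cell Western stained for mono-methyl arginine (800 nm) with DRAQ5 DNA stain (700 nm). Per-well signal ratio normalised between DMSO and 20 μM reference-compound controls as percent activation; EC30 from triplicate nine-point three-fold dilutions.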"}
{"molecule": "CC[C@H]1CC[C@@H](c2n[nH]cc2CN(C)CCNC)CC1", "note": "[compound 1]", "values": [{"measurement": "PRMT1 RGG ICW EC30", "value": 83.01, "unit": "nM"}]}
{"molecule": "CCOCCOCC1(COCCOCC)CCC(c2n[nH]cc2CN(C)CCNC)CC1", "note": "[compound 39, N1-((3-(4,4-bis((2-ethoxyethoxy)methyl)cyclohexyl)-1H-pyrazol-4-yl)methyl)-N1,N2-dimethylethane-1,2-diamine]", "values": [{"measurement": "PRMT1 RGG ICW EC30", "value": 1388, "unit": "nM"}]}
{"molecule": "CNCCN(C)Cc1c[nH]nc1C1CCC(COCCC2CCOCC2)(COCCC2CCOCC2)CC1", "note": "[compound 40]", "values": [{"measurement": "PRMT1 RGG ICW EC30", "value": 458.5, "unit": "nM"}]}
{"molecule": "CNCCN(C)Cc1c[nH]nc1C1CCC(COCC2CC2)(COCC2CC2)CC1", "note": "[compound 41, N1-((3-(4,4-bis((cyclopropylmethoxy)methyl)cyclohexyl)-1H-pyrazol-4-yl)methyl)-N1,N2-dimethylethane-1,2-diamine]", "values": [{"measurement": "PRMT1 RGG ICW EC30", "value": 67.48, "unit": "nM"}]}
{"molecule": "CN(C)CCN(C)Cc1c[nH]nc1[C@H]1CC[C@@]2(CC1)CC(C)(C)CO2", "note": "[compound 42, N1-((3-((5S,8S)-3,3-dimethyl-1-oxaspiro[4.5]decan-8-yl)-1H-pyrazol-4-yl)methyl)-N1,N2,N2-trimethylethane-1,2-diamine]", "values": [{"measurement": "PRMT1 RGG ICW EC30", "value": 51.41, "unit": "nM"}]}
{"molecule": "CN(C)CCN(C)Cc1c[nH]nc1[C@H]1CC[C@]2(CC1)CC(C)(C)CO2", "note": "[compound 43, N1-((3-((5r,8r)-3,3-dimethyl-1-oxaspiro[4.5]decan-8-yl)-1H-pyrazol-4-yl)methyl)-N1,N2,N2-trimethylethane-1,2-diamine]", "values": [{"measurement": "PRMT1 RGG ICW EC30", "value": 622.8, "unit": "nM"}]}
{"molecule": "CNCCN(C)Cc1c[nH]nc1C1CCC(CO)(CO)CC1", "note": "[compound 44, (4-(4-((methyl(2-(methylamino)ethyl)amino)methyl)-1H-pyrazol-3-yl)cyclohexane-1,1-diyl)dimethanol]", "values": [{"measurement": "PRMT1 RGG ICW EC30", "value": ">5000", "unit": "nM"}]}
{"molecule": "CNCCN(C)Cc1c[nH]nc1C1=CCC2(CC1)CC(C)(C)CO2", "note": "(centres unmarked) [compound 46, N1-((3-(3,3-dimethyl-1-oxaspiro[4.5]dec-7-en-8-yl)-1H-pyrazol-4-yl)methyl)-N1,N2-dimethylethane-1,2-diamine]", "values": [{"measurement": "PRMT1 RGG ICW EC30", "value": 185.1, "unit": "nM"}]}
{"molecule": "CCC1(CC)C[C@]2(CC[C@H](c3n[nH]cc3CN(C)CCNC)CC2)NC1=O", "note": "[compound 47, (5s,8s)-3,3-diethyl-8-(4-((methyl(2-(methylamino)ethyl)amino)methyl)-1H-pyrazol-3-yl)-1-azaspiro[4.5]decan-2-one]", "values": [{"measurement": "PRMT1 RGG ICW EC30", "value": 367.1, "unit": "nM"}]}
{"molecule": "CCC1(CC)C[C@]2(CC[C@@H](c3n[nH]cc3CN(C)CCNC)CC2)NC1=O", "note": "[compound 48, (5r,8r)-3,3-diethyl-8-(4-((methyl(2-(methylamino)ethyl)amino)methyl)-1H-pyrazol-3-yl)-1-azaspiro[4.5]decan-2-one]", "values": [{"measurement": "PRMT1 RGG ICW EC30", "value": ">5000", "unit": "nM"}]}
{"molecule": "CNCCN(C)Cc1ccnn1[C@H]1CC[C@@]2(CC1)CC(C)(C)CO2", "note": "[compound 49, N1-((1-((5s,8s)-3,3-dimethyl-1-oxaspiro[4.5]decan-8-yl)-1H-pyrazol-5-yl)methyl)-N1,N2-dimethylethane-1,2-diamine]", "values": [{"measurement": "PRMT1 RGG ICW EC30", "value": 111.3, "unit": "nM"}]}
